Reference: ChEMBL document CHEMBL4840365, “BMS-813160: A Potent CCR2 and CCR5 Dual Antagonist Selected as a Clinical Candidate” (ACS Med Chem Lett, 2021)
pIC50: −log10 of the molar value.

Experiments:
[1] = target: C-C chemokine receptor type 2 (Homo sapiens, UniProt P41597); test: Antagonist activity at CCR2 in human whole blood assessed as inhibition of CCL2-induced CD11b upregulation; assay type: functional, tissue-based
[2] = target: T1, C-C chemokine receptor type 1 (Homo sapiens, UniProt P32246); test: Displacement of [125I]MIP-1alpha from CCR1 in human THP-1 cells incubated for 12 hrs by radioligand competition assay; assay type: cell-based
T1 sequence (P32246 whole entry): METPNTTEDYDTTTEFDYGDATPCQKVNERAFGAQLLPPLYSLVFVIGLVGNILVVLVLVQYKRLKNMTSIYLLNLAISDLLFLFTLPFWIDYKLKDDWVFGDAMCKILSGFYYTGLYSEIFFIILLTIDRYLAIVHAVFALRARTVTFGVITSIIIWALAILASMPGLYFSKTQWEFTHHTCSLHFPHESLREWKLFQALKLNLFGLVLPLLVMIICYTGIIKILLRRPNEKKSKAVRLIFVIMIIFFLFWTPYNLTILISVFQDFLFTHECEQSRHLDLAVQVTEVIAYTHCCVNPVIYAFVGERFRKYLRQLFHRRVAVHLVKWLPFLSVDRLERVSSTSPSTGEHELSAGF

[3] = target: T2, C-C chemokine receptor type 4 (Homo sapiens, UniProt P51679); test: Displacement of [125I]chemokine from CCR4 (unknown origin) by gamma counter method
T2 sequence (P51679 whole entry): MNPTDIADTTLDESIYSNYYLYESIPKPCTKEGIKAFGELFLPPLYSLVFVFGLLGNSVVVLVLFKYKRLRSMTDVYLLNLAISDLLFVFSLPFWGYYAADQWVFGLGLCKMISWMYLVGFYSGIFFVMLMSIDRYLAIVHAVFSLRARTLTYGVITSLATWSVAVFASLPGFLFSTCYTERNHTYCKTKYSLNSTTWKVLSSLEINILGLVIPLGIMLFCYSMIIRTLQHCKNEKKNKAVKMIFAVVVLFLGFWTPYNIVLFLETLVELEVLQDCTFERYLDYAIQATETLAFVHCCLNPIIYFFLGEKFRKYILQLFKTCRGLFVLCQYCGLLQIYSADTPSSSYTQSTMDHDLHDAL

[4] = target: T3, C-X-C chemokine receptor type 2 (Homo sapiens, UniProt P25025); test: Displacement of [125I]-interleukin-8 from human CXCR2 expressed in human pEAK rapid cells incubated for 90 mins by microscintillation counting analysis; assay type: cell-based
T3 sequence (P25025 whole entry): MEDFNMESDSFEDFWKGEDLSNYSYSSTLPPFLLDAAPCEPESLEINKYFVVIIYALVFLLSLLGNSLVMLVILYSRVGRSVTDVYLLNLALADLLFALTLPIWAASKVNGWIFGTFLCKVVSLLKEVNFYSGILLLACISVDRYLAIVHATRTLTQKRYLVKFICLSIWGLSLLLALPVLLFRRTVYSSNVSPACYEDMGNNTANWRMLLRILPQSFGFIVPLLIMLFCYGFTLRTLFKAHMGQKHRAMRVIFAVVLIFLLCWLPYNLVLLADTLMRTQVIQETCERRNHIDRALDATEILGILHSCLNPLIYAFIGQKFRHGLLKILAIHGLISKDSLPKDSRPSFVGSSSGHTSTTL

[5] = target: C-C chemokine receptor type 2 (Mus musculus, UniProt P51683); test: Displacement of [125I]-CCL2 from mouse CCR2
C-C chemokine receptor type 2 (Mus musculus, UniProt P51683), sequence (P51683 whole entry): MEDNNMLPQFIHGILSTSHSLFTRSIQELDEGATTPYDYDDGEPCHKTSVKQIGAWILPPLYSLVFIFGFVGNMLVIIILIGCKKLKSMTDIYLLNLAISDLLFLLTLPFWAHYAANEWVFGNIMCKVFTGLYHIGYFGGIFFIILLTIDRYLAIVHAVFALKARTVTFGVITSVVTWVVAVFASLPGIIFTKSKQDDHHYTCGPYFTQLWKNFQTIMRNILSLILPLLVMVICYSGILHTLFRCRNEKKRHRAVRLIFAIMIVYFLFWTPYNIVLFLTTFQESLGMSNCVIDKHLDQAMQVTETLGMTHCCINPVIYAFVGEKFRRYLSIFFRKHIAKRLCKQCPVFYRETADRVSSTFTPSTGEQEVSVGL

[6] = Stability in human liver microsomes assessed as half life at 0.5 uM measured up to 45 mins in the presence of NADPH by LC-MS/MS analysis; assay type: ADME, Microsome
[7] = Stability in mouse liver microsomes assessed as half life at 0.5 uM measured up to 45 mins in the presence of NADPH by LC-MS/MS analysis; assay type: ADME, Microsome
[8] = Stability in rat liver microsomes assessed as half life at 0.5 uM measured up to 45 mins in the presence of NADPH by LC-MS/MS analysis; assay type: ADME, Microsome
[9] = target: hERG (KCNH2) (Homo sapiens, UniProt Q12809); test: Inhibition of human ERG expressed in HEK293 cells at 30 uM by patch-clamp assay relative to control; assay type: cell-based; settings: HEK293 cells that express hERG
hERG (KCNH2), sequence (Q12809 whole entry): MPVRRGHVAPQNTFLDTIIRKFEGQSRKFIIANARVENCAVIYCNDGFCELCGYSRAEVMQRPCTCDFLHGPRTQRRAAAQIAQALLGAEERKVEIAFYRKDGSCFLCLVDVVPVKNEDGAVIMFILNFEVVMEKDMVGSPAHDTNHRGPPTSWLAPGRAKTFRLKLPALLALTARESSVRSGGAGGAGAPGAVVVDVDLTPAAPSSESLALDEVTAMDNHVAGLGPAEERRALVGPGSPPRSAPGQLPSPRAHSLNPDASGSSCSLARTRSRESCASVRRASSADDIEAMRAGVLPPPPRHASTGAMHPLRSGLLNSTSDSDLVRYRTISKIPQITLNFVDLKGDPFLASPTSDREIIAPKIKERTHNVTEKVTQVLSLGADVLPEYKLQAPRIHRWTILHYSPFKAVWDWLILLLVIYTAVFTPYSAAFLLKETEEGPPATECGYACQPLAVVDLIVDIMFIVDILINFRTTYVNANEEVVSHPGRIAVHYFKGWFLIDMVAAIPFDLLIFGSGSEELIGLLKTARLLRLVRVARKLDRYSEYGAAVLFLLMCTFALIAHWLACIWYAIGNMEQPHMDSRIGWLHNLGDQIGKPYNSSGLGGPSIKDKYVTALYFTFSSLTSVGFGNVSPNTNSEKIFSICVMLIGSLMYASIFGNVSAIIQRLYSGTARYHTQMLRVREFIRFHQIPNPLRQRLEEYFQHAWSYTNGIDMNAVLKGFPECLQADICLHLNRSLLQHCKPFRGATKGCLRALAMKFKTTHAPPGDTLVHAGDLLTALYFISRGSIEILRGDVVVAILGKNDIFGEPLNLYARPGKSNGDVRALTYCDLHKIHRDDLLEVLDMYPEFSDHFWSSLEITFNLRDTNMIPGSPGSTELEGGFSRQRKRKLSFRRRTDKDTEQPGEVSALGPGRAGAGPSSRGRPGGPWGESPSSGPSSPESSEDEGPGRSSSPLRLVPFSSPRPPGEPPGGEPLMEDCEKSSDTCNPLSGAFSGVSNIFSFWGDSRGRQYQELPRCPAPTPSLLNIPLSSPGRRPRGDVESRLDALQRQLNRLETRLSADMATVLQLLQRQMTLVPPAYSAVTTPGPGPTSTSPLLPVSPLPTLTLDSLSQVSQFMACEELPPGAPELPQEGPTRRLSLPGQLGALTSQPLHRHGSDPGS

[10] = Protein binding in human plasma assessed as unbound fraction at 1 uM by equilibrium dialysis method; assay type: ADME, cell-free
[11] = Protein binding in mouse plasma assessed as unbound fraction at 1 uM by equilibrium dialysis method; assay type: ADME, cell-free
[12] = Protein binding in rat plasma assessed as unbound fraction at 1 uM by equilibrium dialysis method; assay type: ADME, cell-free
[13] = Permeability of the compound at pH 5.5 by PAMPA; assay type: ADME; settings: read-out: permeability
[14] = Clearance in mouse at 2 mg/kg, iv; assay type: ADME, organism-based; settings: in vivo
[15] = Clearance in rat at 2 mg/kg, iv; assay type: ADME, organism-based; settings: in vivo
[16] = Clearance in dog at 1 mg/kg, iv; assay type: ADME, organism-based, Canis lupus familiaris; settings: in vivo
[17] = Clearance in cynomolgus monkey at 1 mg/kg, iv; assay type: ADME, organism-based, Macaca fascicularis; settings: in vivo
[18] = Oral bioavailability in mouse at 10 mg/kg; assay type: ADME, organism-based; settings: in vivo
[19] = Oral bioavailability in rat at 10 mg/kg; assay type: ADME, organism-based; settings: in vivo
[20] = Oral bioavailability in dog at 1 mg/kg; assay type: ADME, organism-based, Canis lupus familiaris; settings: in vivo
[21] = Oral bioavailability in cynomolgus monkey at 1 mg/kg; assay type: ADME, organism-based, Macaca fascicularis; settings: in vivo
[22] = AUC (0 to 24 hrs) in mouse at 10 mg/kg, po; assay type: ADME, organism-based; set-up: time < 24 hr, route oral, dose 10 mg/kg; settings: in vivo
[23] = AUC (0 to 24 hrs) in rat at 10 mg/kg, po; assay type: ADME, organism-based; set-up: time < 24 hr, route oral, dose 10 mg/kg; settings: in vivo
[24] = AUC (0 to 24 hrs) in dog at 1 mg/kg, po; assay type: ADME, organism-based, Canis lupus familiaris; set-up: time < 24 hr, route oral, dose 1 mg/kg; settings: in vivo
[25] = AUC (0 to 24 hrs) in cynomolgus monkey at 1 mg/kg, po; assay type: ADME, organism-based, Macaca fascicularis; set-up: time < 24 hr, route oral, dose 1 mg/kg; settings: in vivo
[26] = tested on: Mus musculus; test: Antiinflammatory activity against human CCR2 knock-in thioglycollate-induced peritonitis C57BL/6 mouse model assessed as reduction in inflammatory monocyte and macrophage infiltration in peritoneum administered orally twice daily for 2 days with first dose 1 hr prior to thioglycollate challenge; assay type: functional, organism-based; settings: dose 10-160 mg/kg, time 2.0 day
[27] = organism: Homo sapiens; test: Selectivity ratio of IC50 for displacement of [125I]-CCL2 from CCR2 in human PBMC cells to IC50 for displacement of [125I]-MIP-1beta from CCR5 in human peripheral T cells; assay type: cell-based

C-C chemokine receptor type 2 (Homo sapiens, UniProt P41597), sequence (P41597 whole entry): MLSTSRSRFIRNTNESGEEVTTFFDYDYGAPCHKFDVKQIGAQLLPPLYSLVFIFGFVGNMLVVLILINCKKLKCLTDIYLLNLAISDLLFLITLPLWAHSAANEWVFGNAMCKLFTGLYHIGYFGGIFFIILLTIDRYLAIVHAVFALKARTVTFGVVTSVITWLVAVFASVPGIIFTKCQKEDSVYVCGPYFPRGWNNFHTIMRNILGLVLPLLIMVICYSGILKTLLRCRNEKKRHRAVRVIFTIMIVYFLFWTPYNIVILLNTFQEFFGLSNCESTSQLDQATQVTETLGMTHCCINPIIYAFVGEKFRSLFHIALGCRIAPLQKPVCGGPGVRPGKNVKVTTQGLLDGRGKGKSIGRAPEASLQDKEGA

CC(=O)N[C@@H]1C[C@H](NC(C)(C)C)CC[C@@H]1N1CC[C@H](Nc2ncnc3ccc(C(F)(F)F)cc23)C1=O
pIC50 [1]: 8.59

CC(=O)N[C@@H]1C[C@H](NC(C)(C)C)CC[C@@H]1N1CC[C@H](Nc2ncnc3cc(C(C)(C)C)nn23)C1=O [BMS-813160]
pIC50 [2]: < 4.60 | pIC50 [3]: < 4.40 | pIC50 [4]: < 4.40 | pIC50 [5]: 7.35 | half-life at 0.5 µM [6]: 2.43 h | half-life at 0.5 µM [7]: > 3.33 h | half-life at 0.5 µM [8]: > 3.33 h | inhibition at 30 µM [9]: 9% | fraction unbound at 1 µM [10]: 0.71 | fraction unbound at 1 µM [11]: 0.58 | fraction unbound at 1 µM [12]: 0.69 | Papp [13]: 1.9 ×10⁻⁶ cm/s | clearance [14]: 85 mL/min/kg | clearance [15]: 50 mL/min/kg | clearance [16]: 17 mL/min/kg | clearance [17]: 16 mL/min/kg | bioavailability [18]: 100% | bioavailability [19]: 94% | bioavailability [20]: 61% | bioavailability [21]: 63% | AUC(0-t) at 24 h [22]: 5.41 µM·h | AUC(0-t) at 24 h [23]: 6.5 µM·h | AUC(0-t) at 24 h [24]: 1.23 µM·h | AUC(0-t) at 24 h [25]: 1.3 µM·h | Activity [26]: Dose-Dependent Effect | Ratio IC50 [27]: 2
